Source: publication PMC10770148, “Transport and inhibition mechanism for VMAT2-mediated synaptic vesicle loading of monoamines” (Cell Research, 2024)
Read-outs that look alike come from different tables or passages of the source.

Assays:
[1] = target: T1, VMAT2 Y433F (Homo sapiens, UniProt Q05940, Y433F); test: MST binding to VMAT2 Y433F mutant; conditions: Y433F variant, mean ± SEM
T1 construct: The eGFP-tagged full-length VMAT2 or VMAT2 mutants was purified by size exclusion chromatography; made in house; host or cells: Expi293 cells
Procedure: (§1) The eGFP-tagged full-length VMAT2 or VMAT2 mutants was purified by size exclusion chromatography in the assay buffer (50 mM HEPES, 150 mM NaCl, 0.01% DDM, 0.001% CHS, pH 7.4) as described but without cleavage. Peak fractions were pooled and diluted to 40 nM. […] For MST measurements, a series of 16 sequential 1:1 dilutions were prepared using assay buffer for each ligand, and each ligand dilution was mixed 1:1 with diluted protein to final protein concentration of 20 nM and final ligand concentrations in the μM to nM range. The samples were incubated for 10 min at room temperature, and then loaded into Standard Monolith Capillaries (Cat# MO-K022, NanoTemper Technologies). Measurements were carried out with a Monolith NT.115 device at 80% LED power and 40% MST power. Kd was determined using the MO. Affinity Analysis software (version 2.3, NanoTemper Technologies, Germany) is with the Kd fit function. Capillaries displaying aggregation or adsorption were excluded. Data of at least three independently pipetted measurements were analyzed and Kd is expressed as mean ± SEM. Binding curves were plotted by GraphPad Prism Prism 9.5.1 (GraphPad Software Inc., San Diego, USA).

[2] = target: VMAT2_WT (Homo sapiens, UniProt Q05940); test: MST binding to WT VMAT2
Procedure: as §1

[3] = test system: VMAT2 and VMAT1; parameters: method as in PMID 8643547; conditions: cited from earlier work
[4] = target: T2, VMAT2 V232L (Homo sapiens, UniProt Q05940, V232L); test: MST binding to VMAT2 V232L mutant; conditions: V232L variant, mean ± SEM
T2 construct: The eGFP-tagged full-length VMAT2 or VMAT2 mutants was purified by size exclusion chromatography; made in house; host or cells: Expi293 cells
Procedure: as §1

[5] = target: T3, VMAT2 W318A (Homo sapiens, UniProt Q05940, W318A); test: MST binding to VMAT2 W318A mutant; conditions: MST (Fig. S9a), versus WT
T3 construct: The eGFP-tagged full-length VMAT2 or VMAT2 mutants was purified by size exclusion chromatography; made in house; host or cells: Expi293 cells
Procedure: as §1

[6] = test system: VMAT1; parameters: method as in PMID 23506877; conditions: cited from earlier work
[7] = target: T4, VMAT2 I308V (Homo sapiens, UniProt Q05940, I308V); test: MST binding to VMAT2 I308V mutant; conditions: I308V variant, mean ± SEM
T4 construct: The eGFP-tagged full-length VMAT2 or VMAT2 mutants was purified by size exclusion chromatography; made in house; host or cells: Expi293 cells
Procedure: as §1

[8] = test system: VMAT2; parameters: method as in PMID 23506877; conditions: cited from earlier work
[9] = target: T5, VMAT1_WT (Homo sapiens, UniProt P54219); test: MST binding to WT VMAT1
T5 sequence (P54219 1-525): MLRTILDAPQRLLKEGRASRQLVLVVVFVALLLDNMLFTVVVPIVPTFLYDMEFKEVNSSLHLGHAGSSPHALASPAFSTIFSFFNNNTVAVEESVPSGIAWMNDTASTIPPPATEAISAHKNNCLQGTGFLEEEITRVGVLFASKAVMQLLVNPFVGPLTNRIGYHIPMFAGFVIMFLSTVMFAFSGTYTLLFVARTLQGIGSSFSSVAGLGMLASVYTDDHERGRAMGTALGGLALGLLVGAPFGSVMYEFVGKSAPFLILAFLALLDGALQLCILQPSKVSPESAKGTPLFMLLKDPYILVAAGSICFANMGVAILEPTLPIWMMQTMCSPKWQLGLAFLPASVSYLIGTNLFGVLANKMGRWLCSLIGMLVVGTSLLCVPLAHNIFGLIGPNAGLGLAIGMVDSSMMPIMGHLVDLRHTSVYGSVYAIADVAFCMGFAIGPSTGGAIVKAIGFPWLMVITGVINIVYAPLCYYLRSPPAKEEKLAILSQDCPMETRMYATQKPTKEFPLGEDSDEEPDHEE

[10] = test system: VMAT2 N34A; test: MST binding to VMAT2 N34A mutant; parameters: species or system human; conditions: N34A versus WT
Procedure: as §1

[11] = test system: VMAT2 E312A; test: MST binding to VMAT2 E312A mutant; parameters: species or system human; conditions: E312A versus WT, MST (Fig. S9a)
Procedure: as §1

[12] = target: T6, VMAT2 L37F (Homo sapiens, UniProt Q05940, L37F); test: MST binding to VMAT2 L37F mutant
T6 construct: The eGFP-tagged full-length VMAT2 or VMAT2 mutants was purified by size exclusion chromatography; made in house; host or cells: Expi293 cells
Procedure: as §1

[13] = target: T7, VMAT2 Leu124 and Leu125 mutant (Homo sapiens, UniProt Q05940, L124R/L125R); test: MST binding to VMAT2 Leu124/Leu125 mutant; conditions: MST (Fig. S9a), versus WT
T7 construct: The eGFP-tagged full-length VMAT2 or VMAT2 mutants was purified by size exclusion chromatography; made in house; host or cells: Expi293 cells
Procedure: as §1

VMAT2_WT, sequence (Q05940 whole entry): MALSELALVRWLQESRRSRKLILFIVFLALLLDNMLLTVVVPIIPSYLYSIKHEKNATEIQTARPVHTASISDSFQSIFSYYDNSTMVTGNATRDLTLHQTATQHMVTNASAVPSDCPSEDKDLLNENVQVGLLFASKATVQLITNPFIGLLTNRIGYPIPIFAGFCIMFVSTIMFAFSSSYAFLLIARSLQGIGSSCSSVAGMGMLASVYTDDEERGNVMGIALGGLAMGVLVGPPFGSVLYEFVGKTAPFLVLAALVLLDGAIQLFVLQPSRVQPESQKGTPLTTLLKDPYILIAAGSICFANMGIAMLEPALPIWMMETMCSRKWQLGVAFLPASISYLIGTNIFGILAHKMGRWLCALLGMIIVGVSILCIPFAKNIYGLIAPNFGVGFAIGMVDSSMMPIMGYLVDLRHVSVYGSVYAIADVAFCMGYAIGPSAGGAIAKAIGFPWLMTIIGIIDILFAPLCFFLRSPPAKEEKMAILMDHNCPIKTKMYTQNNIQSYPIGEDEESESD
T1 sequence (Q05940 whole entry Y433F): as the sequence (Q05940 whole entry) above, with Y433F counted along it
T6 sequence (Q05940 whole entry L37F): as the sequence (Q05940 whole entry) above, with L37F counted along it
T3 sequence (Q05940 whole entry W318A): as the sequence (Q05940 whole entry) above, with W318A counted along it
T4 sequence (Q05940 whole entry I308V): as the sequence (Q05940 whole entry) above, with I308V counted along it
T2 sequence (Q05940 whole entry V232L): as the sequence (Q05940 whole entry) above, with V232L counted along it
T7 sequence (Q05940 whole entry L124R/L125R): as the sequence (Q05940 whole entry) above, with L124R, L125R counted along it

## NCCc1c[nH]c2ccc(O)cc12 [5-HT, serotonin]
[1]
  Kd: 3440 ± 1130 nM
[2]
  Kd: 3300 ± 1010 nM

## COC(=O)[C@H]1[C@H]2C[C@@H]3c4[nH]c5cc(OC)ccc5c4CCN3C[C@H]2C[C@@H](OC(=O)c2cc(OC)c(OC)c(OC)c2)[C@@H]1OC [RES, reserpine]
[3]
  affinity or preference VMAT2 versus VMAT1: slight preference for VMAT2 over VMAT1

## COc1cc2c(cc1OC)C1CC(=O)C(CC(C)C)CN1CC2 (stereo not drawn) [TBZ, tetrabenazine]
[4]
  Kd: 22900 ± 20000 nM
[3]
  affinity or preference VMAT2 versus VMAT1: selectively target VMAT2
[5]
  TBZ binding, W318A mutant: substantial reduction in TBZ binding
[6]; 0.3 μM vs 3 μM
  IC50 difference VMAT2 versus VMAT1: 10 fold
[6]; VMAT1
  IC50: 3000 nM
[7]
  Kd: 168 ± 103 nM
[8]
  IC50: […]
[9]; 60 nM vs 9.38 μM
  difference in affinity between VMAT2 and VMAT1: ~150 fold
[9]; VMAT1 WT, mean ± SEM
  Kd: 9380 nM
[10]
  reduction in TBZ binding affinity, N34A substitution: 7 fold
[1]
  Kd: 437 ± 141 nM
[11]
  decrease in TBZ binding affinity, E312A mutant: 8 fold
[12]; L37F versus WT VMAT2, MST
  reduction of TBZ binding by L37F variant: 45 fold
[12]; MST, L37F variant, mean ± SEM
  Kd: 2780 ± 1080 nM
[2]; MST, VMAT2 WT, mean ± SEM, n = 3–4, read-out: Kd
  Kd: 60 nM
[13]
  TBZ association, Leu124 and Leu125 perturbations: largely diminished TBZ association

## NCCc1c[nH]cn1 [histamine]
[3]; substrates
  higher affinity of VMAT2 than VMAT1: 30 fold

## O=C(c1ccc(F)cc1)C1CCN(CCn2c(=O)[nH]c3ccccc3c2=O)CC1 [ketanserin]
[3]
  affinity or preference VMAT2 versus VMAT1: slight preference for VMAT2 over VMAT1
